Consider 26 compounds from US8642657B2 (Gruenenthal GmbH, priority 2003, dated 2014).

The target in series [1] is T1, rat VR1 (Rattus norvegicus, UniProt O35433).
T1 construct: expressed in transfected cells
As to the kind of experiment: [3H]resiniferatoxin (RTX) competition binding assay, VR1-transfected CHO cells. The method, boiled down:
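Competition with [3H]RTX (50-100 pM) ran 60 min at 37° C using whole VR1-induced CHO cells in BSA-containing DPBS, nonspecific defined by 100 nM cold RTX. After centrifugation, pellet radioactivity counted by scintillation; Hill fits gave Ki and cooperativity.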

For series [2], the target named is T1, rat VR1. In words: 45Ca2+-uptake assay in CHO/VR1 cells, antagonism of capsaicin-stimulated uptake. The following applies: 45Ca2+ uptake stimulated by 50 nM capsaicin. The series is classed as cell-based.
The mark [3] stands for this setting: competition with [3H]RTX, rat VR1 in CHO cells, read-out: Ki (nM) Binding Affinity.

T1 sequence (O35433 whole entry): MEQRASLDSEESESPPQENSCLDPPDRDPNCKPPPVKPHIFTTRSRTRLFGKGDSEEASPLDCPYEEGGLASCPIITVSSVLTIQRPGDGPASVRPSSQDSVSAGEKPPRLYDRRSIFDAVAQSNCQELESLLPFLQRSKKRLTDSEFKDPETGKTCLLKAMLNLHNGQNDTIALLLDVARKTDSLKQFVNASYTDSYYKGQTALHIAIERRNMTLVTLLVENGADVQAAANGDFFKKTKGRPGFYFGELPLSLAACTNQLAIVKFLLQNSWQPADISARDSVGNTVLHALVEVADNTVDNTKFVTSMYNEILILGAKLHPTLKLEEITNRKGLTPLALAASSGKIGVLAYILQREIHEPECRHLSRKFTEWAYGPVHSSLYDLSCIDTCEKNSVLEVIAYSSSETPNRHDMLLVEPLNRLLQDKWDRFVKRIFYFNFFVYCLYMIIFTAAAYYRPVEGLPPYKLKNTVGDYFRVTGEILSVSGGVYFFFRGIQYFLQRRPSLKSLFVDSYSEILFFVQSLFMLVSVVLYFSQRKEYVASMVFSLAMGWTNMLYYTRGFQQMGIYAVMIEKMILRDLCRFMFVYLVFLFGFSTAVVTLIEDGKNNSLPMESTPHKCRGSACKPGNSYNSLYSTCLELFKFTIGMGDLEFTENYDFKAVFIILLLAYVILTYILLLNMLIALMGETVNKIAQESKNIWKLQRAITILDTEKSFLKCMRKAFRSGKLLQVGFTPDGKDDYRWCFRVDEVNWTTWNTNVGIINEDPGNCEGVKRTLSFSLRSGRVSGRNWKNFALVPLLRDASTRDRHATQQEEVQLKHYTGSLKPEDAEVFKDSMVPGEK

Turning to `COc1cc(C2(C(=O)NCC(COC(=O)C(C)(C)C)Cc3ccc(C)c(C)c3)CC2)ccc1NS(C)(=O)=O` (stereo not drawn) [12-3, N-[2-(3,4-Dimethylbenzyl)-3-pivaloyloxypropyl]-1-[3-methoxy-4-(methylsulfonylamino)phenyl]cyclopropanecarboxamide], the melting point – broadly, the temperature of the solid-liquid transition – is 66 to 68 °C. For the same compound, the Ki (in general, a measure of affinity in units of concentration, obtained from inhibition or displacement) at rat VR1 [1] (setting [3]) came out at 238 nM. This compound also registered a Ki on rat VR1 [2] of 117 nM.

On to `Cc1ccc(CCCNC(=O)C2(c3ccc(NS(C)(=O)=O)cc3)CC2)cc1C` [12-4, N-[3-(3,4-Dimethylphenyl)propyl]-1-[4-(methylsulfonylamino)phenyl]cyclopropanecarboxamide], for which the melting point is 127 to 128 °C. On rat VR1 [1], this compound yielded a Ki of 1740 nM. The Ki on rat VR1 [2] came to 1100 nM.

In turn, `COc1cc(C2(C(=O)NCCCc3ccc(C)c(C)c3)CC2)ccc1NS(C)(=O)=O` [12-6, N-[3-(3,4-Dimethylphenyl)propyl]-1-[3-methoxy-4-(methylsulfonylamino)phenyl]cyclopropanecarboxamide] registered a melting point of 88 to 89 °C. Besides, the affinity at rat VR1 [1], expressed as Ki, was 1700 nM. The Ki at rat VR1 [2] is 1240 nM.

Consider `CC(C)(C)c1ccc(CNC(=O)C2(c3ccc(NS(C)(=O)=O)cc3)CC2)cc1` [12-7, N-(4-tert-Butylbenzyl)-1-[4-(methylsulfonylamino)phenyl]cyclopropanecarboxamide], for which the melting point fell in the range of 200 to 203 °C. Besides, at rat VR1 [1] (setting [3]), the Ki amounted to 608 nM. Besides, the affinity at rat VR1 [2], expressed as Ki, was 1760 nM.

Consider `COc1cc(C2(C(=O)NCc3ccc(C(C)(C)C)cc3)CC2)ccc1NS(C)(=O)=O` [12-9, N-(4-tert-Butylbenzyl)-1-[3-methoxy-4-(methylsulfonylamino)phenyl]cyclopropanecarboxamide], for which the melting point was in the range of 200 to 203 °C. Further, the inhibitory constant (Ki) at rat VR1 [1] (setting [3]) is 745 nM. Moreover, the Ki at rat VR1 [2] was 2250 nM.

`CC(NC(=S)NCc1ccc(C(C)(C)C)cc1)c1ccc(NS(C)(=O)=O)c(F)c1` (stereo not drawn) [15-2, N-(4-t-Butylbenzyl)-N′-{1-[3-fluoro-4-(methylsulfonylamino)phenyl]ethyl}thiourea]: the melting point is 165 °C. Also, the inhibition constant (Ki) at rat VR1 [1] (setting [3]) is 54 nM. Further, at rat VR1 [2], the inhibitory constant (Ki) turned out to be 9.16 nM.

Consider `COc1cc(C(C)NC(=S)NCc2ccc(C(C)(C)C)cc2)ccc1NS(C)(=O)=O` (stereo not drawn) [15-3, N-(4-t-Butylbenzyl)-N′-{1-[3-methoxy-4-(methylsulfonylamino)phenyl]ethyl}thiourea], for which the melting point lay within 80 to 82 °C. For the same compound, the Ki at rat VR1 [1] (setting [3]) is 66.5 nM. Moreover, affinity on rat VR1 [2] was put at a Ki of 28.6 nM.

Take `COC(=O)c1cc(C(C)NC(=S)NCc2ccc(C(C)(C)C)cc2)ccc1NS(C)(=O)=O` (stereo not drawn) [15-4, N-(4-t-Butylbenzyl)-N′-{1-[3-(methoxycarbonyl)-4-(methylsulfonylamino)phenyl]ethyl}thiourea]: the melting point lay within 132 to 135 °C. The compound also showed a Ki at rat VR1 [1] of 163 nM. At rat VR1 [2], the inhibition constant (Ki) turned out to be 65.8 nM.

`C[C@@H](NC(=S)NC[C@H](COC(=O)C(C)(C)C)Cc1ccccc1)c1ccc(NS(C)(=O)=O)cc1` [18-1, N-[(2R)-2-Benzyl-3-(pivaloyloxy)propyl]-N′-{(1R)-1-[4-(methylsulfonylamino)phenyl]ethyl}thiourea] showed a melting point of 62 to 64 °C. On rat VR1 [1], this compound registered a Ki of 22.7 nM. Further, the inhibitory constant (Ki) on rat VR1 [2] came to 44.5 nM.

Compound `C[C@@H](NC(=S)NC[C@@H](COC(=O)C(C)(C)C)Cc1ccccc1)c1ccc(NS(C)(=O)=O)cc1` [18-2, N-[(2S)-2-Benzyl-3-(pivaloyloxy)propyl]-N′-{(1R)-1-[4-(methylsulfonylamino)phenyl]ethyl}thiourea] came in with a melting point of 58 to 62 °C. This compound also showed a Ki on rat VR1 [1] of 19.4 nM. On rat VR1 [2], this compound had a Ki of 89 nM.

Take `C[C@H](NC(=S)NC[C@H](COC(=O)C(C)(C)C)Cc1ccccc1)c1ccc(NS(C)(=O)=O)cc1` [18-3, N-[(2R)-2-Benzyl-3-(pivaloyloxy)propyl]-N′-{(1S)-1-[4-(methylsulfonylamino)phenyl]ethyl}thiourea]: the melting point lay in the range of 58 to 62 °C. The compound also showed an inhibitory constant (Ki) on rat VR1 [1] of 1140 nM. On rat VR1 [2], this compound displayed an inhibitory constant (Ki) of 3470 nM.

Compound `C[C@H](NC(=S)NC[C@@H](COC(=O)C(C)(C)C)Cc1ccccc1)c1ccc(NS(C)(=O)=O)cc1` [18-4, N-[(2S)-2-Benzyl-3-(pivaloyloxy)propyl]-N′-{(1S)-1-[4-(methylsulfonylamino)phenyl]ethyl}thiourea] displayed a melting point of 62 to 64 °C. On rat VR1 [1], the inhibition constant Ki was 706 nM. This compound also yielded a Ki on rat VR1 [2] of 133 nM.

`Cc1ccc(CC(CNC(=S)NC(C)c2ccc(NS(C)(=O)=O)cc2)COC(=O)C(C)(C)C)cc1C` (stereo not drawn) [18-5, N-[2-(3,4-Dimethylbenzyl)-3-(pivaloyloxy)propyl]-N′-{1-[4-(methylsulfonylamino)phenyl]ethyl}thiourea]: the melting point was 77 °C. This compound also had a Ki on rat VR1 [1] of 37.2 nM. For the same compound, at rat VR1 [2], the inhibition constant Ki was found to be 25.9 nM.

For the compound `CC(NC(=S)NCC(COC(=O)C(C)(C)C)Cc1ccc(C(C)(C)C)cc1)c1ccc(NS(C)(=O)=O)cc1` (stereo not drawn) [18-9, N-[2-(4-tert-Butylbenzyl)-3-(pivaloyloxy)propyl]-N′-{1-[4-(methylsulfonylamino)phenyl]ethyl}thiourea], the melting point turned out to be 87 °C. The compound further showed an inhibition constant Ki on rat VR1 [1] of 42.7 nM. Moreover, the inhibition constant Ki on rat VR1 [2] was 28.7 nM.

`C[C@@H](NC(=S)NCC(COC(=O)C(C)(C)C)Cc1ccc(C(C)(C)C)cc1)c1ccc(NS(C)(=O)=O)cc1` (stereo partly drawn) [18-10, N-[2-(4-tert-Butylbenzyl)-3-(pivaloyloxy)propyl]-N′-{(1R)-1-[4-(methylsulfonylamino)phenyl]ethyl}thiourea] returned a melting point of 88 to 90 °C. In addition, the Ki on rat VR1 [1] is 9.95 nM. On rat VR1 [2], this compound had a Ki of 23.9 nM.

In the case of `C[C@@H](NC(=S)NC[C@H](COC(=O)C(C)(C)C)Cc1ccc(C(C)(C)C)cc1)c1ccc(NS(C)(=O)=O)cc1` [18-11, N-[(2R)-2-(4-tert-Butylbenzyl)-3-(pivaloyloxy)propyl]-N′-{(1R)-1-[4-(methylsulfonylamino)phenyl]ethyl}thiourea], the melting point lay within 85 to 87 °C. Further, the Ki at rat VR1 [1] was found to be 15.7 nM. At rat VR1 [2], the inhibition constant (Ki) worked out at 53 nM.

Compound `C[C@@H](NC(=S)NC[C@@H](COC(=O)C(C)(C)C)Cc1ccc(C(C)(C)C)cc1)c1ccc(NS(C)(=O)=O)cc1` [18-12, N-[(2S)-2-(4-tert-Butylbenzyl)-3-(pivaloyloxy)propyl]-N′-{(1R)-1-[4-(methylsulfonylamino)phenyl]ethyl}thiourea] had a melting point of 88 to 90 °C. The affinity at rat VR1 [1], expressed as Ki, was 8.09 nM. At rat VR1 [2], this compound showed a Ki of 30.6 nM.

`Cc1ccc(CC(CNC(=S)NC(C)c2ccc(NS(C)(=O)=O)c(F)c2)COC(=O)C(C)(C)C)cc1C` (stereo not drawn) [18-13, N-[2-(3,4-Dimethylbenzyl)-3-(pivaloyloxy)propyl]-N′-{1-[3-fluoro-4-(methylsulfonylamino)phenyl]ethyl}thiourea] returned a melting point of 73 °C. This compound had a Ki on rat VR1 [1] of 37 nM. In addition, the inhibition constant Ki on rat VR1 [2] worked out at 7.09 nM.

Compound `CC(NC(=S)NCC(COC(=O)C(C)(C)C)Cc1ccc(C(C)(C)C)cc1)c1ccc(NS(C)(=O)=O)c(F)c1` (stereo not drawn) [18-14, N-[2-(4-tert-Butylbenzyl)-3-(pivaloyloxy)propyl]-N′-{1-[3-fluoro-4-(methylsulfonylamino)phenyl]ethyl}thiourea] had a melting point of 78 °C. On rat VR1 [1], this compound had a Ki of 37 nM. In addition, the inhibition constant Ki at rat VR1 [2] was 9.34 nM.

Compound `C[C@@H](NC(=S)N[C@@H](COC(=O)C(C)(C)C)Cc1ccccc1)c1ccc(NS(C)(=O)=O)cc1` [19-13, N-[(2R)-3-phenyl-1-pivaloyloxy-2-propyl]-N′-[(R)-α-methyl-4-(methylsulfonylamino)benzy]thiourea] yielded a melting point of 59 to 61 °C. The compound also gave a Ki at rat VR1 [1] of 420 nM. The inhibition constant (Ki) at rat VR1 [2] was determined as 193 nM.

On to `CCC(NC(=S)NCc1ccc(C(C)(C)C)cc1)c1ccc(NS(C)(=O)=O)c(F)c1` (stereo not drawn) [20-12, N-(4-t-Butylbenzyl)-N′-{1-[4-(methylsulfonylamino)-3-fluorophenyl]propyl}thiourea], for which the melting point was 85 °C. On rat VR1 [1] (setting [3]), the inhibition constant Ki turned out to be 230 nM. Also, the affinity at rat VR1 [2], expressed as Ki, was 54.3 nM.

With `CC(C)C(NC(=S)NCc1ccc(C(C)(C)C)cc1)c1ccc(NS(C)(=O)=O)c(F)c1` (stereo not drawn) [20-13, N′-(4-t-Butylbenzyl)-N-{1-[4-(methylsulfonylamino)-3-fluorophenyl]-2-methylpropyl}thiourea], the melting point is 84 °C. In addition, the inhibition constant (Ki) at rat VR1 [1] (setting [3]) is 338 nM. In addition, on rat VR1 [2], the Ki was 223 nM.

On to `CC(C)(C)c1ccc(CNC(=S)NC(c2ccccc2)c2ccc(NS(C)(=O)=O)c(F)c2)cc1` (stereo not drawn) [20-14], for which the melting point came out at 191 °C. For the same compound, at rat VR1 [1] (setting [3]), the inhibitory constant (Ki) turned out to be 100 nM. This compound registered a Ki on rat VR1 [2] of 861 nM.

Consider `CC(C)(C)c1ccc(CNC(=S)NC(Cc2ccccc2)c2ccc(NS(C)(=O)=O)c(F)c2)cc1` (stereo not drawn) [20-15, N-(4-t-Butylbenzyl)-N′-{1-[4-(methylsulfonylamino)-3-fluorophenyl]-2-phenylethyl}thiourea], for which the melting point came out at 116 °C. Further, the inhibitory constant (Ki) on rat VR1 [1] (setting [3]) was 1740 nM. The compound further showed an inhibition constant Ki on rat VR1 [2] of 695 nM.

For `CC(C)(C)c1ccc(CNC(=S)NC(C)(C)c2ccc(NS(C)(=O)=O)c(F)c2)cc1` [21-8, N-(4-t-Butylbenzyl)-N′-{1-methyl-1-[3-fluoro-4-(methylsulfonylamino)phenyl]ethyl}thiourea], the melting point fell in the range of 83 to 85 °C. The Ki on rat VR1 [1] (setting [3]) was determined as 7740 nM. The affinity on rat VR1 [2] corresponds to a Ki of 983 nM.

In turn, `COc1cc(C(C)(C)NC(=S)NCc2ccc(C(C)(C)C)cc2)ccc1NS(C)(=O)=O` [21-9, N-(4-t-Butylbenzyl)-N′-{1-methyl-1-[3-methoxy-4-(methylsulfonylamino)phenyl]ethyl}thiourea] returned a melting point of 148 to 150 °C. Besides, the Ki at rat VR1 [1] (setting [3]) turned out to be 2890 nM. This compound gave an inhibitory constant (Ki) on rat VR1 [2] of 663 nM.
